Like-named read-outs stand apart in the source and are kept apart here.
Assays:
RPEMYC^H2B-GFP cells [1] = assay: Mechanism-informed phenotypic screening assay (mitotic arrest, polyploidy; GE IN-Cell Analyzer 2000); assay type: cell-based; conditions: 20 nM to 20 μM, 24, 48 or 72 hours, read-out: Mitotic Arrest (≥5%)
RPEMYC^H2B-GFP cells [2] = assay: as above; assay type: cell-based; conditions: 20 nM to 20 μM, 24, 48 or 72 hours; for minimal effective concentration: read-out: Min. Effective conc. for polyploidy (≥5%)
Protocol: We have Previously Developed a Mechanism-Informed Phenotypic Screening Assay to identify novel antimitotic agents (Li et al. 2019). Equipped with a prior understanding of the versatile functions of the chromosomal passenger protein (CPP) complex in orchestrating karyokinesis and cytokinesis, the screening assay is to score for phenotypes typically seen when the CPP complex is disabled. Specifically, the parameters for a positive hit are a temporary elevation of mitotic index (MI) at 24 hours of drug treatment and an accumulation of polyploid cells at 48 hours of drug treatment, indicative of mitotic arrest and cytokinetic failure respectively. These parameters exclude compounds that elicit only a prolonged arrest of cells in mitosis, a phenotype typically provoked by spindle toxins. The screening procedure is briefly summarized here. RPEMYC^H2B-GFP cells engineered to express a Histone 2B-EGFP fusion protein were passaged as batches of 96-well plates, 18-24 hours before exposure to the chemical compounds of the present disclosure at concentrations from 20 nM to 20 μM. At 24, 48 or 72 hours after initiation of treatment, cells were analyzed for either an arrest in mitosis or a change in DNA content by GE IN-Cell Analyzer 2000. As set forth in table 2 below, a value of greater than or equal to […] and less than or equal to 1.0 μM is marked e “A”; a value greater than […] and less than or equal to 10.0 μM is marked “B”; a value greater than 10.0 μM and less than or equal to 30.0 μM is marked “C”; and a value greater than 30.0 μM is marked “D.”

SMILES: COc1cc(Oc2ncccc2-c2ccncc2)cc(C(=O)N(C)C)c1 [Compound 5, 3-([3,4′-bipyridin]-2-yloxy)-5-methoxy-N,N-dimethylbenzamide]
- minimal effective concentration (RPEMYC^H2B-GFP cells [1]): 0.001 to 10 µM
- minimal effective concentration (RPEMYC^H2B-GFP cells [2]): 0.001 to 10 µM

SMILES: CCOc1cc(Oc2ncccc2-c2ccncc2)cc(C(=O)NC)c1 [Compound 6, 3-([3,4′-bipyridin]-2-yloxy)-5-ethoxy-N-methylbenzamide]
- minimal effective concentration (RPEMYC^H2B-GFP cells [1]): 1 µM
- minimal effective concentration (RPEMYC^H2B-GFP cells [2]): 1 µM

SMILES: COc1cc(Oc2ncccc2-c2ccncc2)cc(-c2nc(C)no2)c1 [Compound 11, 5-(3-([3,4′-bipyridin]-2-yloxy)-5-methoxyphenyl)-3-methyl-1,2,4-oxadiazole]
- minimal effective concentration (RPEMYC^H2B-GFP cells [1]): 1 µM
- minimal effective concentration (RPEMYC^H2B-GFP cells [2]): 1 µM

SMILES: COc1cc(OC)cc(Oc2nccnc2-c2ccncc2)c1 [Compound 15, 2-(3,5-dimethoxyphenoxy)-3-(pyridin-4-yl)pyrazine]
- minimal effective concentration (RPEMYC^H2B-GFP cells [1]): 1 µM
- minimal effective concentration (RPEMYC^H2B-GFP cells [2]): 1 µM

SMILES: CNC(=O)c1cc(OC)cc(Oc2nccnc2-c2ccncc2)c1 [Compound 18, 3-methoxy-N-methyl-5-((3-(pyridin-4-yl)pyrazin-2-yl)oxy)benzamide]
- minimal effective concentration (RPEMYC^H2B-GFP cells [1]): 1 µM
- minimal effective concentration (RPEMYC^H2B-GFP cells [2]): 1 µM

SMILES: Cc1noc(-c2cc(Oc3ncccc3-c3ccnc(N)n3)cc(-c3nc(C)no3)c2)n1 [Compound 22, 4-(2-(3,5-bis(3-methyl-1,2,4-oxadiazol-5-yl)phenoxy)pyridin-3-yl)pyrimidin-2-amine]
- minimal effective concentration (RPEMYC^H2B-GFP cells [1]): > 30 µM
- minimal effective concentration (RPEMYC^H2B-GFP cells [2]): > 30 µM

SMILES: COc1cc(Oc2ncccc2-c2ccnc(N)n2)cc(C(=O)O)c1 [Compound 24, 3-((3-(2-aminopyrimidin-4-yl)pyridin-2-yl)oxy)-5-methoxybenzoic acid]
- minimal effective concentration (RPEMYC^H2B-GFP cells [1]): > 30 µM
- minimal effective concentration (RPEMYC^H2B-GFP cells [2]): > 30 µM

SMILES: CNC(=O)c1cc(OC)cc(Oc2ncccc2-c2ccnc(N)n2)c1 [Compound 25, 3-((3-(2-aminopyrimidin-4-yl)pyridin-2-yl)oxy)-5-methoxy-N-methylbenzamide]
- minimal effective concentration (RPEMYC^H2B-GFP cells [1]): 1 µM
- minimal effective concentration (RPEMYC^H2B-GFP cells [2]): 1 µM

SMILES: COc1cc(OC)cc(Oc2ncccc2-c2ccnc(Cl)c2)c1 [Compound 44, 2′-chloro-2-(3,5-dimethoxyphenoxy)-3,4′-bipyridine]
- minimal effective concentration (RPEMYC^H2B-GFP cells [1]): 1 µM
- minimal effective concentration (RPEMYC^H2B-GFP cells [2]): 1 µM

SMILES: COc1cc(OC)cc(Oc2ncccc2-c2cccnc2)c1 [Compound 47, 2-(3,5-dimethoxyphenoxy)-3,3′-bipyridine]
- minimal effective concentration (RPEMYC^H2B-GFP cells [1]): 1 µM
- minimal effective concentration (RPEMYC^H2B-GFP cells [2]): 1 µM

SMILES: COc1cc(OC)cc(Oc2nccnc2-c2cccnc2)c1 [Compound 50]
- minimal effective concentration (RPEMYC^H2B-GFP cells [1]): 1 µM
- minimal effective concentration (RPEMYC^H2B-GFP cells [2]): 1 µM

SMILES: COc1cc(OC)cc(Oc2ncccc2-c2ccccc2)c1 [Compound 55, 2-(3,5-dimethoxyphenoxy)-3-phenylpyridine]
- minimal effective concentration (RPEMYC^H2B-GFP cells [1]): 0.001 to 10 µM
- minimal effective concentration (RPEMYC^H2B-GFP cells [2]): 0.001 to 10 µM

SMILES: COC(=O)c1cc(Oc2ncccc2-c2ccccc2)cc(C(=O)OC)c1 [Compound 56, dimethyl 5-((3-phenylpyridin-2-yl)oxy)isophthalate]
- minimal effective concentration (RPEMYC^H2B-GFP cells [1]): 1 µM
- minimal effective concentration (RPEMYC^H2B-GFP cells [2]): 1 µM

SMILES: COc1cc(OC)cc(Oc2nccnc2-c2ccccc2)c1 [Compound 57, 2-(3,5-dimethoxyphenoxy)-3-phenylpyrazine]
- minimal effective concentration (RPEMYC^H2B-GFP cells [1]): 0.001 to 10 µM
- minimal effective concentration (RPEMYC^H2B-GFP cells [2]): 0.001 to 10 µM

SMILES: COc1cc(OC)cc(Oc2ncccc2-c2cc(OC)cc(OC)c2)c1 [Compound 58, 2-(3,5-dimethoxyphenoxy)-3-(3,5-dimethoxyphenyl)pyridine]
- minimal effective concentration (RPEMYC^H2B-GFP cells [1]): 1 µM
- minimal effective concentration (RPEMYC^H2B-GFP cells [2]): 1 µM

SMILES: COc1cc(OC)cc(Oc2nccnc2-c2cc(OC)cc(OC)c2)c1 [Compound 59, 2-(3,5-dimethoxyphenoxy)-3-(3,5-dimethoxyphenyl)pyrazine]
- minimal effective concentration (RPEMYC^H2B-GFP cells [1]): 0.001 to 10 µM
- minimal effective concentration (RPEMYC^H2B-GFP cells [2]): 0.001 to 10 µM

SMILES: COc1cc(OC)cc(Oc2ncccc2-c2cc(OC)ncn2)c1 [Compound 60, 4-(2-(3,5-dimethoxyphenoxy)pyridin-3-yl)-6-methoxypyrimidine]
- minimal effective concentration (RPEMYC^H2B-GFP cells [1]): 1 µM
- minimal effective concentration (RPEMYC^H2B-GFP cells [2]): 1 µM

SMILES: COc1cc(OC)cc(Oc2ncccc2-c2ccnc(N)c2)c1 [Compound 61, 2-(3,5-dimethoxyphenoxy)-[3,4′-bipyridin]-2′-amine]
- minimal effective concentration (RPEMYC^H2B-GFP cells [1]): 1 µM
- minimal effective concentration (RPEMYC^H2B-GFP cells [2]): 1 µM

SMILES: COc1cc(OC)cc(Oc2ncccc2-c2ccnc(SC)n2)c1 [Compound 62, 4-(2-(3,5-dimethoxyphenoxy)pyridin-3-yl)-2-(methylthio)pyrimidine]
- minimal effective concentration (RPEMYC^H2B-GFP cells [1]): 0.001 to 10 µM
- minimal effective concentration (RPEMYC^H2B-GFP cells [2]): 0.001 to 10 µM

SMILES: CNc1cc(-c2cccnc2Oc2cc(OC)cc(OC)c2)ncn1 [Compound 64, 6-(2-(3,5-dimethoxyphenoxy)pyridin-3-yl)-N-methylpyrimidin-4-amine]
- minimal effective concentration (RPEMYC^H2B-GFP cells [1]): 0.001 to 10 µM
- minimal effective concentration (RPEMYC^H2B-GFP cells [2]): 0.001 to 10 µM

SMILES: COc1cc(OC)cc(Oc2ncccc2-c2ccncc2N)c1 [Compound 65, 2-(3,5-dimethoxyphenoxy)-[3,4′-bipyridin]-3′-amine]
- minimal effective concentration (RPEMYC^H2B-GFP cells [1]): 0.001 to 10 µM
- minimal effective concentration (RPEMYC^H2B-GFP cells [2]): 0.001 to 10 µM

SMILES: CNC(=O)c1cc(OC)cc(Oc2ncccc2-c2ccnc(C(F)(F)F)c2)c1 [Compound 66, 3-methoxy-N-methyl-5-((2′-(trifluoromethyl)-[3,4′-bipyridin]-2-yl)oxy)benzamide]
- minimal effective concentration (RPEMYC^H2B-GFP cells [1]): 1 µM
- minimal effective concentration (RPEMYC^H2B-GFP cells [2]): 1 µM

SMILES: CCOc1cc(Oc2ncccc2-c2ccnc(C(F)(F)F)c2)cc(C(=O)NC)c1 [Compound 67, 3-ethoxy-N-methyl-5-((2′-(trifluoromethyl)-[3,4′-bipyridin]-2-yl)oxy)benzamide]
- minimal effective concentration (RPEMYC^H2B-GFP cells [1]): 0.001 to 10 µM
- minimal effective concentration (RPEMYC^H2B-GFP cells [2]): 0.001 to 10 µM

SMILES: COc1cc(OC)cc(Oc2cncc(-c3ccccc3)n2)c1 [Compound 81, 2-(3,5-dimethoxyphenoxy)-6-phenylpyrazine]
- minimal effective concentration (RPEMYC^H2B-GFP cells [1]): 0.001 to 10 µM
- minimal effective concentration (RPEMYC^H2B-GFP cells [2]): 0.001 to 10 µM

SMILES: COc1cc(OC)cc(Oc2cncc(-c3cccnc3)n2)c1 [Compound 82, 2-(3,5-dimethoxyphenoxy)-6-(pyridin-3-yl)pyrazine]
- minimal effective concentration (RPEMYC^H2B-GFP cells [1]): 0.001 to 10 µM
- minimal effective concentration (RPEMYC^H2B-GFP cells [2]): 0.001 to 10 µM

SMILES: COc1cc(OC)cc(Oc2cncc(-c3cccc(F)c3)n2)c1 [Compound 83, 2-(3,5-dimethoxyphenoxy)-6-(3-fluorophenyl)pyrazine]
- minimal effective concentration (RPEMYC^H2B-GFP cells [1]): > 30 µM
- minimal effective concentration (RPEMYC^H2B-GFP cells [2]): > 30 µM

SMILES: COc1cc(OC)cc(Oc2ncccc2-c2ccnc(Cl)n2)c1 [Compound 84, 2-chloro-4-(2-(3,5-dimethoxyphenoxy)pyridin-3-yl)pyrimidine]
- minimal effective concentration (RPEMYC^H2B-GFP cells [1]): 10 to 30 µM
- minimal effective concentration (RPEMYC^H2B-GFP cells [2]): > 30 µM

SMILES: CCOCCOc1cc(-c2cccnc2Oc2cc(OC)cc(C(=O)NC)c2)ccn1 [Compound 85, 3-((2′-(2-ethoxyethoxy)-[3,4′-bipyridin]-2-yl)oxy)-5-methoxy-N-methylbenzamide]
- minimal effective concentration (RPEMYC^H2B-GFP cells [1]): 1 µM
- minimal effective concentration (RPEMYC^H2B-GFP cells [2]): 1 µM

SMILES: CCOCCOc1cc(-c2cccnc2Oc2cc(OC)cc(-n3cccn3)c2)ccn1 [Compound 86, 2′-(2-ethoxyethoxy)-2-(3-methoxy-5-(1H-pyrazol-1-yl)phenoxy)-3,4′-bipyridine]
- minimal effective concentration (RPEMYC^H2B-GFP cells [1]): 1 µM
- minimal effective concentration (RPEMYC^H2B-GFP cells [2]): 1 µM

SMILES: CCOCCOc1cc(-c2cccnc2Oc2cc(NC(C)=O)cc(OC)c2)ccn1 [Compound 87, N-(3-((2′-(2-ethoxyethoxy)-[3,4′-bipyridin]-2-yl)oxy)-5-methoxyphenyl)acetamide]
- minimal effective concentration (RPEMYC^H2B-GFP cells [1]): 1 µM
- minimal effective concentration (RPEMYC^H2B-GFP cells [2]): 1 µM

SMILES: CNC(=O)c1cc(Oc2ncccc2-c2ccnc(C)c2)cc(-n2cccn2)c1 [Compound 88, N-methyl-3-((2′-methyl-[3,4′-bipyridin]-2-yl)oxy)-5-(1H-pyrazol-1-yl)benzamide]
- minimal effective concentration (RPEMYC^H2B-GFP cells [1]): 1 µM
- minimal effective concentration (RPEMYC^H2B-GFP cells [2]): 1 µM

SMILES: CNC(=O)c1cc(Oc2ncccc2-c2ccnc(C)c2)cc(-c2cnn(C)c2)c1 [Compound 89, N-methyl-3-(1-methyl-1H-pyrazol-4-yl)-5-((2′-methyl-[3,4′-bipyridin]-2-yl)oxy)benzamide]
- minimal effective concentration (RPEMYC^H2B-GFP cells [1]): 1 µM
- minimal effective concentration (RPEMYC^H2B-GFP cells [2]): 1 µM

SMILES: CNC(=O)c1cc(Oc2ncccc2-c2ccncc2)cc(-c2cnn(C)c2)c1 [Compound 90, 3-([3,4′-bipyridin]-2-yloxy)-N-methyl-5-(1-methyl-1H-pyrazol-4-yl)benzamide]
- minimal effective concentration (RPEMYC^H2B-GFP cells [1]): 1 µM
- minimal effective concentration (RPEMYC^H2B-GFP cells [2]): 1 µM

SMILES: CNC(=O)c1cc(OC)cc(Oc2ncccc2-c2cncnc2)c1 [Compound 91, 3-methoxy-N-methyl-5-((3-(pyrimidin-5-yl)pyridin-2-yl)oxy)benzamide]
- minimal effective concentration (RPEMYC^H2B-GFP cells [1]): 1 µM
- minimal effective concentration (RPEMYC^H2B-GFP cells [2]): 1 µM

SMILES: CNC(=O)c1cc(OC)cc(Oc2ncccc2-c2cccc(F)c2)c1 [Compound 92, 3-((3-(3-fluorophenyl)pyridin-2-yl)oxy)-5-methoxy-N-methylbenzamide]
- minimal effective concentration (RPEMYC^H2B-GFP cells [1]): 1 µM
- minimal effective concentration (RPEMYC^H2B-GFP cells [2]): 1 µM

SMILES: COc1cc(NC(C)=O)cc(Oc2ncccc2-c2ncccn2)c1 [Compound 93, N-(3-methoxy-5-((3-(pyrimidin-2-yl)pyridin-2-yl)oxy)phenyl)acetamide]
- Min. Effective conc. for polyploidy (≥5%) (RPEMYC^H2B-GFP cells [2]): inactive
- Mitotic Arrest (≥5%) (RPEMYC^H2B-GFP cells [2]): inactive

Reference: patent publication US20240262803A1, “COMPOUNDS, COMPOSITIONS AND METHODS OF TREATING DISORDERS” (Chungdu Anticancer Bioscience Ltd, priority 2021, published 2024)
